# How the values were obtained:
# [1] = parameters: species or system male CD-1 mice; details: mouse, in vivo, iv
# Experimental: (§1) Following anesthetization, the jugular vein and right carotid artery were exposed. Mice were given a jugular vein injection of 0.2 ml BSA-LR containing 3 × 10^5 cpm-1×10^6 cpm of an ^125I/^14C-labeled IRA and 5 × 10^5 cpm of ^99mTc-Alb. Blood samples were collected from the carotid artery at various time points from 1 to 60 min after iv injection (see Figure 1). Mice were then decapitated, and their brains were removed and weighed. After clotting, the arterial blood was centrifuged at 3200 ×g for 10 min. Levels of radioactivity in serum (50 μl) and brain were measured in a gamma counter for ^125I and ^99mTc for 3 min. After ^99mTc decay, ^14C-DA5-CH samples were solubilized with Solvable (Sigma), transferred to scintillation vials containing Ecoscint (National Diagnostics) and ^14C was measured in a beta counter. Sample injection checks were taken throughout the course of the study to calculate the mean injected cpm/mouse. To determine the rate of ^125I/^14C-IRA clearance from the serum, the results were expressed as the percentage of an injected dose in each ml of serum (%Inj/ml), which was calculated by dividing the cpm in a ml of serum (cpm/ml serum) by the cpm injected into the mouse (cpm/Inj):
# (2) %Inj/ml=100×cpm/mlserum/meancpm/Inj
# The log(%Inj/ml) was plotted against time to calculate the rate of clearance from the serum. To calculate the half-time clearance in minutes, the inverse slope […] of the curve for each IRA was multiplied by 0.301 (log10[2]). The blood and brain cpm data were used for the measurement of brain influx and initial volume of distribution in brain as described in Section 2.7.
# [2] = human, in vivo; cited from earlier work
# [3] = In vivo stability of 125I/14C-IRAs in blood/serum (acid precipitation); parameters: species or system male CD-1 mice; details: mouse, iv
# Experimental: We measured the stability of the radiolabeled IRAs in brain and blood. Following anesthetization, arterial blood and whole brain were taken at two time points (10 or 60 min) after iv injection of 3 × 10^5 cpm-1×10^6 cpm of ^125I/^14C-IRA in 0.2 ml of BSA/LR. The blood samples were allowed to clot, centrifuged at 3200 ×g for 10 min, and 50 μl of the separated serum was added to 250 μl of BSA-LR. Samples were combined with equal volume 30% TCA (300 μl), mixed, and then centrifuged for 10 min at 5400 ×g. Brains were homogenized in 800 μl of BSA-LR with a bead beater for 30 sec at 4800 rpm twice. Following centrifugation at 5400 ×g for 15 min, a portion of the resulting supernatant was added to an equal volume of 30% TCA, mixed, and then centrifuged at 5400 ×g for 10 min. The radioactivity in the resulting supernatant and pellet (Sup and Pel fractions) for serum and brain was calculated separately, and the percent of radioactivity in the precipitate was calculated using the following equation:(1) %AcidPrecip=100×Pel/Sup+Pel
# To correct for degradation that might have occurred during the processing, ^125I/^14C-IRA was added to non-radioactive arterial whole blood or to whole brain and processed as above. The biological samples were corrected for degradation during processing by dividing their values by those for processing control (Pcon) values and multiplying by 100. This can sometimes result in a value greater than 100%.
# Immediately after counting the radioactivity, the blood and brains from the 10 min and 6 h time points were processed as described in Section 2.5 for in vivo stability. For further comparison, data from the 1 h time point were taken from the original pharmacokinetic uptake study. The ^125I-IRA brain % acid precipitation (%AP) was divided by the ^125I-IRA serum %AP at each time point to calculate the %AP B/S ratio. This value was multiplied by the B/S ratio for each ^125I-IRA to correct for degradation over the 10 min, 1 h, or 6 h time periods. Corrected AP B/S ratios were then corrected for vascular space by subtracting the ^99mTc-Alb B/S ratio within each mouse for the 10 min and 6 h time points (AP corrected delta B/S ratio). For the 1 h time point, the average ^99mTc-Alb B/S ratio (10.03 μl/g) at 10 min across all ^125I-IRAs was used for correction. The AP corrected delta B/S ratio for each ^125I-IRA was then multiplied by the %Inj/ml within each mouse to calculate the AP corrected delta %Inj/g.
# [4] = Brain influx and initial volume of distribution (multiple-time regression analysis); parameters: species or system male CD-1 mice; details: mouse, in vivo, iv
# Experimental: as §1
# To calculate the blood-to-brain unidirectional influx constant (Ki), multiple-time regression analysis was used as first described by Patlak, Blasberg, and Fenstermacher.[67],[68] The brain/serum (B/S) ratios (μl/g) of the ^125I/^14C-IRA in each gram of brain were calculated from the data in Section 2.6 and plotted against their respective exposure times as previously applied by Rhea et al. 2018.[69] Exposure time differs from clock time in that exposure time corrects for clearance of the ^125I/^14C-IRA from blood and thus, better represents the amount of ^125I/^14C-IRA available for BBB transport at any given time. Delta B/S ratios were calculated by subtracting the vascular space as measured by the B/S ratio for ^99mTc-Alb from the B/S ratio for the respective ^125I/^14C-IRA. Thus, delta B/S ratios represent material that has been taken up by or has crossed the BBB. The slope of the linear portion of the relation between delta B/S ratios and exposure time defines Ki (μl/g-min) and is reported with its error term. This represents Model 1 for DA5-CH. The y-intercept of this linear portion of the relation defines Vi, (μl/g), the initial volume of distribution in brain at t = 0, which is the functional volume per unit brain mass of a soluble compound that exchanges rapidly and reversibly with plasma.[68] Vi consists of the vascular space (Vv) and any residual space after accounting for Vv and usually represents vascular binding (Vr). Since we correct each ^125I/^14C-IRA delta B/S for vascular space, our y-intercept values likely represent vascular binding. For DA5-CH, there appeared to be rapid, early transport that would indicate a Vr equal to 0. Therefore, using Vr equal to 0, we calculated an estimate of this new Ki and refer to it throughout the manuscript as Model 2.
structure (smiles),measurement,setting,value
CC[C@H](C)[C@H](NC(=O)[C@H](CC(C)C)NC(=O)[C@H](Cc1c[nH]c2ccccc12)NC(=O)[C@H](CCC(N)=O)NC(=O)[C@@H](NC(=O)[C@H](Cc1ccccc1)NC(=O)[C@H](C)NC(=O)[C@H](CCCCNC(=O)COCCOCCNC(=O)COCCOCCNC(=O)CC[C@H](NC(=O)CCCCCCCCCCCCCCCCCCC(=O)O)C(=O)O)NC(=O)[C@H](CCC(N)=O)NC(=O)[C@H](C)NC(=O)[C@@H](NC(=O)[C@H](CCCCN)NC(=O)[C@H](CC(=O)O)NC(=O)[C@H](CC(C)C)NC(=O)C(C)(C)NC(=O)[C@@H](NC(=O)[C@H](CO)NC(=O)[C@H](Cc1ccc(O)cc1)NC(=O)[C@H](CC(=O)O)NC(=O)[C@H](CO)NC(=O)[C@@H](NC(=O)[C@H](Cc1ccccc1)NC(=O)[C@@H](NC(=O)CNC(=O)[C@H](CCC(=O)O)NC(=O)C(C)(C)NC(=O)[C@@H](N)Cc1ccc(O)cc1)[C@@H](C)O)[C@@H](C)O)[C@@H](C)CC)[C@@H](C)CC)C(C)C)C(=O)N[C@@H](C)C(=O)NCC(=O)NCC(=O)N1CCC[C@H]1C(=O)N[C@@H](CO)C(=O)N[C@@H](CO)C(=O)NCC(=O)N[C@@H](C)C(=O)N1CCC[C@H]1C(=O)N1CCC[C@H]1C(=O)N1CCC[C@H]1C(=O)N[C@@H](CO)C(N)=O [Tirzepatide],Half-Time Serum Clearance (t1/2),[1],30.62 min
same,half-lives in human serum,[2],111 to 124 h
same,"Percentage of labeled IRA intact, Serum, 10 min",[3],100.5 ± 0.0%
same,"Percentage of labeled IRA intact, Serum, 60 min",[3],99.65 ± 0.1%
same,Brain influx within 1 h of iv injection (detection),[4],did not detect brain influx

# Reference: publication PMC11583597, “Brain uptake pharmacokinetics of albiglutide, dulaglutide, tirzepatide, and DA5-CH in the search for new treatments of Alzheimer’s and Parkinson’s diseases” (Tissue Barriers, 2023)
